According to ChEMBL document CHEMBL5550137 (Bioorg Med Chem Lett, 2024):
In brackets after ≈: the same amount, converted by molar mass.

System: not listed separately
Assay: Solubility in water by HPLC-UV analysis
Format: physicochemical
Settings: not given; call rule not given here
Work on CCN1C(=O)c2cccc3c(Br)ccc(c23)C1=O yielded a solubility of 103 µg/mL (≈ 340 µM).
For Cl.O=C1c2cccc3c(Br)ccc(c23)C(=O)N1Cc1cncnc1, the solubility was 262 µg/mL.

Target: T1, Cytochrome P450 1B1 (Homo sapiens, UniProt Q16678)
T1 sequence (Q16678 whole entry): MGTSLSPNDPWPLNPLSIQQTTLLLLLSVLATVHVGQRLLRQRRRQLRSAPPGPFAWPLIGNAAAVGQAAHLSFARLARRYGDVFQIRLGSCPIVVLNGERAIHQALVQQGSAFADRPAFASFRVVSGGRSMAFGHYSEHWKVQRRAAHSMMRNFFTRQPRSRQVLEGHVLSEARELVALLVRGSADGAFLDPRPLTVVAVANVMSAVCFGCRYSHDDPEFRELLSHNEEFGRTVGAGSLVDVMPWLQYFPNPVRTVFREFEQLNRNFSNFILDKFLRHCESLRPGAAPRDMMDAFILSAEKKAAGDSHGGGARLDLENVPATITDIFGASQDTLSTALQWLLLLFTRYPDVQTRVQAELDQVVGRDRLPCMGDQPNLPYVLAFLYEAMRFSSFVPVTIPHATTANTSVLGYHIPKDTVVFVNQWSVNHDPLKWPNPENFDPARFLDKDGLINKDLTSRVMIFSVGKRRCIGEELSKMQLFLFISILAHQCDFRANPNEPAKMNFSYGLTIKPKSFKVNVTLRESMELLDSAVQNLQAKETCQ
Assay: Inhibition of recombinant human CYP1B1 using 7-ER as substrate in presence of NADPH by fluorescence based assay
Settings: not given
Work on O=C1c2cccc3c(Br)ccc(c23)C(=O)N1CC1CCCCC1 yielded an IC50 of 7.99 nM.
In the case of O=C1c2cccc3c(Br)ccc(c23)C(=O)N1Cc1nccs1, the IC50 is reported as 36.7 nM.
In the case of CCN1C(=O)c2cccc3ccc(Br)c(c23)C1=O, the IC50 is reported as 3.52 nM.
CCN1C(=O)c2cccc3cc(Br)cc(c23)C1=O showed an IC50 of 5.32 nM.
For O=C1c2cccc3c(Br)ccc(c23)C(=O)N1Cc1cn[nH]c1, the IC50 was 0.21 nM.
With O=C1c2cccc3c(Br)ccc(c23)C(=O)N1Cc1cnccn1 the IC50 was 156 nM.
With O=C1c2cccc3c(Br)ccc(c23)C(=O)N1Cc1ncccn1 the IC50 was 91.7 nM.
Compound O=C1c2cccc3c(Br)ccc(c23)C(=O)N1CC1CC1 has an IC50 of 19.2 nM.
Work on O=C1c2cccc3c(Br)ccc(c23)C(=O)N1Cc1cc[nH]n1 yielded an IC50 of 17.6 nM.
For O=C1c2cccc3c(Br)ccc(c23)C(=O)N1Cc1ccccc1, the IC50 was 1.95 nM.
Compound O=C1c2cccc3c(Br)ccc(c23)C(=O)N1Cc1cccnc1 has an IC50 of 1.81 nM.
With Nc1ccc2c3c(cccc13)C(=O)N(Cc1cncnc1)C2=O the IC50 was 67.1 nM.
Compound CCN1C(=O)c2cccc3c(Br)ccc(c23)C1=O has an IC50 of 5.63 nM.
Work on CCN1C(=O)c2cccc3cccc(c23)C1=O yielded an IC50 of 605 nM.
With O=C1c2cccc3c(Br)ccc(c23)C(=O)N1Cc1ccc2ncccc2c1 the IC50 was 30 nM.
For O=C1c2cccc3c(Br)ccc(c23)C(=O)N1CC1Oc2ccccc2O1, the IC50 was 12 nM.
O=C1c2cccc3c(Br)ccc(c23)C(=O)N1Cc1ncco1 showed an IC50 of 31 nM.
O=C1c2cccc3c(Br)ccc(c23)C(=O)N1Cc1cccs1 gave an IC50 of 3.42 nM.
With O=C1c2cccc3c(Br)ccc(c23)C(=O)N1CC1CN(Cc2ccccc2)CCO1 (stereo unspecified) the IC50 was > 1000 nM.
Work on O=C1c2cccc3c(Br)ccc(c23)C(=O)N1Cc1c[nH]cn1 yielded an IC50 of 173 nM.
Compound O=C1c2cccc3c(Br)ccc(c23)C(=O)N1Cc1ccc[nH]1 has an IC50 of 0.39 nM.
Work on O=C1c2cccc3c(Br)ccc(c23)C(=O)N1Cc1ccncn1 yielded an IC50 of 22.7 nM.
For O=C1c2cccc3c(Br)ccc(c23)C(=O)N1Cc1ccon1, the IC50 was 42.3 nM.
With O=C1c2cccc3c(Br)ccc(c23)C(=O)N1Cc1ccncc1 the IC50 was 1.42 nM.
In the case of O=C1c2cccc3c(Br)ccc(c23)C(=O)N1Cc1cncnc1, the IC50 is reported as 0.04 nM.
O=C1c2cccc3cccc(c23)C(=O)N1Cc1cncnc1 showed an IC50 of 221 nM.
O=C1c2cccc3c(Br)ccc(c23)C(=O)N1CCc1ccccc1 showed an IC50 of 5.36 nM.
With CCN1C(=O)c2cccc3c(O)ccc(c23)C1=O the IC50 was > 1000 nM.
In the case of O=C1c2cccc3c(Br)ccc(c23)C(=O)N1CC1CCC1, the IC50 is reported as 3.64 nM.
O=C1c2cccc3c(O)ccc(c23)C(=O)N1Cc1cncnc1 gave an IC50 of 56.6 nM.
Work on O=C1c2cccc3c(Br)ccc(c23)C(=O)N1CC1CCCC1 yielded an IC50 of 11.7 nM.
Compound O=C1c2cccc3c(Br)ccc(c23)C(=O)N1CCCc1ccccc1 has an IC50 of 16.8 nM.
O=C1c2cccc3c(Br)ccc(c23)C(=O)N1CCCCc1ccccc1 showed an IC50 of 57.3 nM.
Compound O=C1c2cccc3c(Br)ccc(c23)C(=O)N1Cc1ccccn1 has an IC50 of 148 nM.

Target: T1, Cytochrome P450 1B1
Assay: Inhibition of recombinant human CYP1B1 using 7-ER as substrate measured after 33 mins in presence of NADPH by fluorescence based assay
Settings: 0.55 h
For O=C1c2cccc3c(Br)ccc(c23)C(=O)N1Cc1cncnc1, the “inhibition (INH)” value was “Not Active”.

Target: T1, Cytochrome P450 1B1
Assay: Mixed inhibition of recombinant human CYP1B1 using 7-ER as substrate in presence of NADPH by fluorescence based assay
Settings: not given
In the case of O=C1c2cccc3c(Br)ccc(c23)C(=O)N1Cc1cncnc1, the Ki is reported as 0.0217 nM.

System: NCI-H460
Assay: Anti-cancer activity of human PTX-resistant NCI-H460 cells incubated for 48 hrs by CCK8 assay
Format: functional, cell-based
Settings: NCI-H460, 48 h
Work on CC(=O)O[C@H]1C(=O)[C@@]2(C)[C@H]([C@H](OC(=O)c3ccccc3)[C@]3(O)C[C@H](OC(=O)[C@H](O)[C@@H](NC(=O)c4ccccc4)c4ccccc4)C(C)=C1C3(C)C)[C@]1(OC(C)=O)CO[C@@H]1C[C@@H]2O [PACLITAXEL] yielded an IC50 of 633 nM.

System: HEK-293T
Assay: Cytotoxicity against HEK293T cells expressing AhR/luc incubated for 48 hrs by CCK8 assay
Format: toxicity, cell-based
Settings: human
For O=C1c2cccc3c(Br)ccc(c23)C(=O)N1Cc1cncnc1, the Activity was “Non-Toxic”.

Target: T1, Cytochrome P450 1B1
Assay: Inhibition of human CYP1B1 over-expressed in CHO cells preincubated for 3 hrs followed media replacement containing estradiol without compound measured after 3 hrs
Format: cell-based
Settings: not given
Work on O=C1c2cccc3c(Br)ccc(c23)C(=O)N1Cc1cncnc1 yielded an IC50 of 0.47 nM.
